Experimental data reported in patent publication US20230287044A1, “NOVEL ANTIBACTERIAL PEPTIDE AND USE THEREOF” (priority 2020, published 2023).
≈ marks a conversion by molar mass, not a printed value. Square brackets hold non-standard residues; d marks the D form. Peptide text beside a SMILES is read from it.

Assays:
[1] = tested on: 30 species of Acinetobacter baumannii (A. baumannii); type: cell-based; conditions: against 30 species of Acinetobacter baumannii
Experimental: In addition, the results obtained by measuring the minimum inhibitory concentrations of KSH29, KSH42 and KSH43 against 30 species of Acinetobacter baumannii (A. baumannii) are shown in Table 4 below.
The minimum inhibitory concentrations (MIC) against the 30 species of Acinetobacter baumannii were measured in the following manner.
The strain 1605 was purchased from ATCC (American Type Culture Collection, USA). In addition, the strain 40203 was purchased from the Korean Culture Center of Microorganisms.
The COL^R refers to resistance to colistin, the TGC^R refers to resistance to tigecycline, and the TGC^I refers to tigecycline intermediate strains.

[2] = tested on: MRAB (A. baumannii) ATCC BAA 1605; type: cell-based, Acinetobacter baumannii; conditions: CAMHB, 37° C., 18 hours; average of three experiments
In short: (§1)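 Mid-log cultures grown in CAMHB and diluted to 1× 10^6 cfu/ml in PBS were mixed with an equal volume of peptide in CAMHB (80 µM to 0.63 µM twofold dilutions). MIC taken as the mean of three independent experiments.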

[3] = tested on: VRE (E. faecalis) ATCC 51575; type: cell-based, Enterococcus faecalis; conditions: ATCC 51575, 18 h
In short: as §1

E. coli = assay: In vivo antibacterial activity in mice (survival rate after E. coli infection); parameters: species or system mice (BALB/c); conditions: E. coli 1 × 10^6 cfu/mouse subcutaneous; 100 mg/kg after 1, 24 and 48 hours; observed 7 days
Experimental: The results obtained by analyzing the antibacterial activity against bacteria (E. coli) according to treatment with KSH43 as a survival rate of mice (BALB/c, female. 7-weeks) are shown in FIG. 216.
Specifically, the strains were grown in CAMHB until the log phase, and then washed with PBS buffer, and infected by subcutaneous injection into mice to 1 × 10^6 cfu/mouse. After 1 hour, 24 hours, and 48 hours, KSH43 and PBS (negative control) were administered at a dose of 100 mg/kg. Thereafter, the survival rate of the mice was checked every 12 hours for 7 days and compared to measure the in vivo antibacterial activity.

[4] = tested on: MRPA (P. aeruginosa) CCARM 2180; type: cell-based, Pseudomonas aeruginosa; conditions: CCARM 2180, 18 h
In short: as §1

[5] = tested on: MRSA (S. aureus) KCCM 40510; type: cell-based, Staphylococcus aureus; conditions: KCCM 40510, 18 h
In short: as §1

[6] = Solubility of antibacterial peptides in solution; type: physicochemical

Compound: CC[C@@H](C)[C@@H](NC(=O)[C@@H](Cc1c[nH]c2ccccc12)NC(=O)[C@@H](CCCNC(=N)N)NC(=O)[C@@H](CCCNC(=N)N)NC(=O)[C@H](N)CCCNC(=N)N)C(=O)N[C@H](Cc1c[nH]c2ccccc12)C(=O)N[C@@H](C(=O)N[C@H](CC(C)C)C(=O)N[C@H](Cc1c[nH]c2ccccc12)C(=O)N[C@H](CCCCN)C(N)=O)C(C)C [KSH43, rrrwiwvlwk] (H-[dR][dR][dR][dW][dI][dW][dV][dL][dW][dK]-NH2; N-terminus assumed)
- MIC50 [1]: 0.63 µM (≈ 0.944 µg/mL)
- MIC90 [1]: 1.25 µM (≈ 1.87 µg/mL)
- MIC MRAB (A. baumannii) ATCC BAA 1605 [2]: 0.63 µM (≈ 0.944 µg/mL)
- MIC VRE (E. faecalis) ATCC 51575 [3]: 0.63 µM (≈ 0.944 µg/mL)
- survival rate of mice (E. coli): all mice administered with KSH43 survived for 7 days
- MIC MRPA (P. aeruginosa) CCARM 2180 [4]: 1.25 µM (≈ 1.87 µg/mL)
- MIC MRSA (S. aureus) KCCM 40510 [5]: 0.63 µM (≈ 0.944 µg/mL)
- solubility at 12 h ([6]; aqueous buffer): > 200 µM
- solubility at 12 h ([6]; plasma or biological fluid): > 25 µM
- solubility at 12 h ([6]; water): > 2000 µM
